# Results as given in US9174995B2, “Pyrrolotriazinone derivatives” (Merck Patent GmbH, priority 2012, dated 2015).
# Tests used:
# Format in all cases: biochemical
# [1] = target: T1, GST-tagged Tnks-1 (1023-1327 aa) (Homo sapiens, UniProt O95271); test: TNKS1 activity ELISA (autoparsylation assay)
# T1 construct: GST-tagged Tnks-1 (1023-1327 aa, prepared in-house); made in house
# Description: (§1) Description of the TNKS1 and TNKS2 ELISA Assay
# (§2) Biochemical Activity Testing of TNKS 1 and 2: Activity ELISA (Autoparsylation Assay)
# (§3) For analysis of autoparsylation activity of TNKS 1 and 2 an activity ELISA is performed: In the first step GST tagged TNKS is captured on a Glutathione coated plate. Then the activity assay with biotinylated NAD is performed in the absence/presence of the compounds. During the enzymatic reaction GST tagged TNKS transfers biotinylated ADP-ribose to itself from biotinylated NAD as co-substrate. For the detection streptavidin-HRP conjugate is added that binds to the biotinylated TNKS and is thereby captured to the plates. The amount of biotinylated resp. autoparsylated TNKS is detected with a luminescence substrate for HRP. The level of the luminescence signal correlats directly with the amount of autoparsylated TNKS and therefore with activity of TNKS.
# (§4) The activity ELISA is performed in 384 well Glutathione coated microtiter plates (Express capture Glutathione coated plate, Biocat, Heidelberg, Germany). The plates are pre-equilibrated with PBS. Then the plates are incubated with 50 μl 20 ng/well GST-tagged Tnks-1 (1023-1327 aa, prepared in-house), respectively GST-tagged Tnks-2 (873-1166 aa, prepared in-house) in assay buffer (50 mM HEPES, 4 mM Mg-chloride, 0.05% Pluronic F-68, 2 mM DTT, pH 7.7) overnight at 4° C. The plates are washed 3 times with PBS-Tween-20. The wells are blocked by incubation at room temperature for 20 minutes with 50 μl blocking buffer (PBS, 0.05% Tween-20, 0.5% BSA). Afterwards the plates are washed 3 times with PBS-Tween-20. The enzymatic reaction is performed in 50 μl reaction solution (50 mM HEPES, 4 mM Mg-chloride, 0.05% Pluronic F-68, 1.4 mM DTT, 0.5% DMSO, pH 7.7) with 10 μM bio-NAD (Biolog, Life science Inst., Bremen, Germany) as co-substrate in the absence or presence of the test compound (10 dilution concentrations) for 1 hour at 30° C. The reaction is stopped by 3 times washing with PBS-Tween-20. For the detection 50 μl of 20 ng/μl Streptavidin, HRP conjugate (MoBiTec, Göttingen, Germany) in PBS/0.05%Tween-20/0.01%BSA are added and the plates are incubated for 30 minutes at room temperature. After three times washing with PBS-Tween-20 50 μl of SuperSignal ELISA Femto Maximum sensitivity substrate solution (ThermoFisherScientific (Pierce), Bonn, Germany) are added. Following a 1 minute incubation at room temperature luminescence signals are measured with an Envision multimode reader (Perkin Elmer LAS Germany GmbH) at 700 nm. The full value used is the inhibitor-free reaction. The pharmacological zero value used is XAV-939 (Tocris) in a final concentration of 5 μM. The inhibitory values (IC50) are determined using either the program Symyx Assay Explorer® or Condosseo® from GeneData.
# [2] = target: T2, GST-tagged Tankyrase-2 (873-1166 aa) (Homo sapiens, UniProt Q9H2K2); test: Tankyrase 2 autoparsylation assay (HTRF enzyme assay)
# T2 construct: GST-tagged Tankyrase-2 (873-1166 aa)
# Description: Biochemical Activity Testing of Tankyrase 1 and 2: Autoparsylation Assay
# The autoparsylation assay is run in two steps: the enzymatic reaction in which GST-tagged Tankyrase-1, resp Tankyrase-2 transferred biotinylated ADP-ribose to itself from biotinylated NAD as co-substrate and the detection reaction where a time resolved FRET between cryptate labelled anti-GST bound to the GST tag of the enzyme and Xlent® labelled-streptavidin bound the biotin-parsylation residue is analysed. The autoparsylation activity was detectable directly via the increase in HTRF signal.
# The autoparsylation assay is performed as 384-well HTRF® (Cisbio, Codolet, France) assay format in Greiner low volume nb 384-well microtiter plates and is used for high throughput screen. 250 nM GST-tagged Tankyrase-1 (1023-1327 aa), respectively about 250 nM GST-tagged Tankyrase-2 (873-1166 aa) and 5 μM bio-NAD (Biolog, Life science Inst., Bremen, Germany) as co-substrate are incubated in a total volume of 5 μl (50 mM HEPES, 4 mM Mg-chloride, 0.05% Pluronic F-68, 1.4 mM DTT, 0.5% DMSO, pH 7.7) in the absence or presence of the test compound (10 dilution concentrations) for 90 min at 30° C. The reaction is stopped by the addition of 1 μl 50 mM EDTA solution. 2 μl of the detection solution (1.6 μM SA-Xlent® (Cisbio, Codolet, France), 7.4 nM Anti-GST-K® (Eu-labelled anti-GST, Cisbio, Codolet, France) in 50 mM HEPES, 800 mM KF, 0.1% BSA, 20 mM EDTA, 0.1% CHAPS, pH 7.0) are added. After 1 h incubation at room temperature the HTRF is measured with an Envision multimode reader (Perkin Elmer LAS Germany GmbH) at excitation wavelength 340 nm (laser mode) and emission wavelengths 615 nm and 665 nm. The ratio of the emission signals is determined. The full value used is the inhibitor-free reaction. The pharmacological zero value used is XAV-939 (Tocris) in a final concentration of 5 μM. The inhibitory values (IC50) are determined using either the program Symyx Assay Explorer® or Condosseo® from GeneData.
# [3] = target: T3, GST-tagged Tnks-2 (873-1166 aa) (Homo sapiens, UniProt Q9H2K2); test: TNKS2 activity ELISA (autoparsylation assay)
# T3 construct: GST-tagged Tnks-2 (873-1166 aa, prepared in-house); made in house
# Description: as §1, §2, §3, §4
# T2 sequence (Q9H2K2 873-1166): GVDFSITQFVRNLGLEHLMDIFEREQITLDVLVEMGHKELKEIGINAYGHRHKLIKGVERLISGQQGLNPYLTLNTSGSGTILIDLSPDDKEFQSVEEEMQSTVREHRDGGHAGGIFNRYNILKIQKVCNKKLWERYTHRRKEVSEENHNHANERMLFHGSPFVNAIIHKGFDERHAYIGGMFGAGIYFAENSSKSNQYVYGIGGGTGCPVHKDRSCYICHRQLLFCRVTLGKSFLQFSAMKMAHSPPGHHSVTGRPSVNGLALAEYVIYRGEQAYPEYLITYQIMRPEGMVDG
# T3 sequence (Q9H2K2 873-1166): as above
# T1 sequence (O95271 1023-1327): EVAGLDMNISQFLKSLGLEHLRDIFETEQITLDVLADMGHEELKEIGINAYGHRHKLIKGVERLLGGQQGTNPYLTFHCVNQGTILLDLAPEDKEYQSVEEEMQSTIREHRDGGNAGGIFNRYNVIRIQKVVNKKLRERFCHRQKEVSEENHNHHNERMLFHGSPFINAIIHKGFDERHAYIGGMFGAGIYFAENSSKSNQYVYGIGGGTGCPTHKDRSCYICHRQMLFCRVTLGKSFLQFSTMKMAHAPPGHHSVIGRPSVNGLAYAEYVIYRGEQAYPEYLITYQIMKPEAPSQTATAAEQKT
structure (smiles),measurement,setting,value
"CC(C)(O)c1ccc(-c2nn3cccc3c(=O)[nH]2)cc1 [Compound A5, 2-[4-(1-hydroxy-1-methyl-ethyl)-phenyl]-3H-pyrrolo[2,1-f][1,2,4]triazin-4-one]",IC50,[1],< 300 nM
same,IC50,[2],< 300 nM
same,IC50,[3],< 300 nM
"Cn1cc(-c2ccc(-c3nn4cccc4c(=O)[nH]3)cc2)cn1 [Compound A7, 2-[4-(1-methyl-1H-pyrazol-4-yl)-phenyl]-3H-pyrrolo[2,1-f][1,2,4]triazin-4-one]",IC50,[1],< 300 nM
same,IC50,[2],300 to 3000 nM
same,IC50,[3],< 300 nM
"Cc1cc2c(=O)[nH]c(-c3ccc(C(C)(C)O)cc3)nn2c1 [Compound A11, 2-[4-(1-hydroxy-1-methyl-ethyl)phenyl]-6-methyl-3H-pyrrolo[2,1-f][1,2,4]triazin-4-one]",IC50,[1],< 300 nM
same,IC50,[2],< 300 nM
same,IC50,[3],< 300 nM
"CC(C)(O)c1ccc(-c2nn3cc(F)cc3c(=O)[nH]2)cc1 [Compound A12, 6-fluoro-2-[4-(1-hydroxy-1-methyl-ethyl)phenyl]-3H-pyrrolo[2,1-f][1,2,4]triazin-4-one]",IC50,[1],< 300 nM
same,IC50,[2],< 300 nM
same,IC50,[3],< 300 nM
"Cc1cc2c(=O)[nH]c(-c3ccc(-c4cnn(C)c4)cc3)nn2c1 [Compound A13, 6-methyl-2-[4-(1-methylpyrazol-4-yl)phenyl]-3H-pyrrolo-[2,1-f][1,2,4]triazin-4-one]",IC50,[1],< 300 nM
same,IC50,[2],< 300 nM
same,IC50,[3],< 300 nM
"CCC(O)(CC)c1ccc(-c2nn3cccc3c(=O)[nH]2)cc1 [Compound A14, 2-[4-(1-ethyl-1-hydroxy-propyl)-phenyl]-3H-pyrrolo[2,1-f][1,2,4]triazin-4-one]",IC50,[1],< 300 nM
same,IC50,[2],< 300 nM
same,IC50,[3],< 300 nM
"CC(C)(OCCO)c1ccc(-c2nn3cccc3c(=O)[nH]2)cc1 [Compound A15, 2-{4-[1-(2-hydroxy-ethoxy)-1-methyl-ethyl]-phenyl}-3H-pyrrolo[2,1-f][1,2,4]triazin-4-one]",IC50,[1],< 300 nM
same,IC50,[2],< 300 nM
same,IC50,[3],< 300 nM
"CC(C)(O)c1ccc(-c2nn3cc(Cl)cc3c(=O)[nH]2)cc1 [Compound A18, 6-chloro-2-[4-(1-hydroxy-1-methyl-ethyl)-phenyl]-3H-pyrrolo[2,1-f][1,2,4]triazin-4-one]",IC50,[1],< 300 nM
same,IC50,[2],< 300 nM
same,IC50,[3],< 300 nM
"O=c1[nH]c(-c2ccc(C3(O)CCCC3)cc2)nn2cccc12 [Compound A21, 2-[4-(1-hydroxy-cyclopentyl)-phenyl]-3H-pyrrolo[2,1-f][1,2,4]-triazin-4-one]",IC50,[1],< 300 nM
same,IC50,[2],< 300 nM
same,IC50,[3],< 300 nM
